# Values joined by “and” are separate entries in the source; they are usually repeats but may differ in a detail not shown here. Equal values may be shown once. “Also recorded” adds a separate entry of the source.
# Legend:
# Type in all cases: cell-based
# FP T294A = target: T1, FP T294A (Homo sapiens, UniProt P43088, T294A); test: IP-One accumulation assay, FP T294A mutant
# T1 construct: Flag; expressed in transfected cells; host or cells: AD293 cells
# Experimental: (§1) IP-One production was measured using the IP-One HTRF kit (Cisbio)[50]. Briefly, AD293 cells (Agilent) were grown to a density of 400,000–500,000 cells per mL and then […] with separate plasmids at a suitable concentration. The culture was collected by centrifugation 24 h after incubation at 37 °C in 5% CO2 with a Stimulation Buffer. The cell suspension was then dispensed in a white 384-well plate at a volume of 7 μl per well before adding 7 μl of ligands. The mixture was incubated for 1 h at 37 °C. IP-One-d2 and anti-IP-One Cryptate dissolved in Lysis Buffer (3 μl each) were subsequently added and incubated for 15-30 min at room temperature before measurement. Intracellular IP-One measurement was carried out with the IP-One HTRF kit and EnVision multi-plate reader (PerkinElmer) according to the manufacturer’s instructions. Data were normalized to the baseline response of the ligand. pEC50 Emin, and Emax for each curve were calculated by GraphPad Prism 8.0. ∆pEC50 equals pEC50 of agonists to specific Mutant minus pEC50 of agonists to WT. Data are presented as mean values ± SEM; n = 3 independent samples; n.s. no significant; *p < 0.05; **p < 0.01; ***p < 0.001.
# FP Q250A = target: T2, FP Q250A (Homo sapiens, UniProt P43088, Q250A); test: IP-One accumulation assay, FP Q250A mutant; conditions: Q250A mutant vs WT FP
# T2 construct: expressed in transfected cells; host or cells: AD293 cells
# Experimental: as §1
# FP R308A = target: T3, FP R308A (Homo sapiens, UniProt P43088, R308A); test: IP-One accumulation assay, FP R308A mutant; conditions: R308A mutant vs WT FP
# T3 construct: expressed in transfected cells; host or cells: AD293 cells
# Experimental: as §1
# FP F205A = target: T4, FP F205A (Homo sapiens, UniProt P43088, F205A); test: IP-One accumulation assay, FP F205A mutant; conditions: F205 to alanine vs WT FP
# T4 construct: Flag; expressed in transfected cells; host or cells: AD293 cells
# Experimental: as §1
# FP F265A = target: T5, FP F265A (Homo sapiens, UniProt P43088, F265A); test: IP-One accumulation assay, FP F265A mutant
# T5 construct: Flag; expressed in transfected cells; host or cells: AD293 cells
# Experimental: as §1
# FP Q297A = target: T6, FP Q297A (Homo sapiens, UniProt P43088, Q297A); test: IP-One accumulation assay, FP Q297A mutant; conditions: Q297A mutant vs WT FP; IP1 accumulation, AD293 cells; single values of n = 3 independent samples
# T6 construct: Flag; expressed in transfected cells; host or cells: AD293 cells
# Experimental: as §1
# FP H81A = target: T7, FP H81A (Homo sapiens, UniProt P43088, H81A); test: IP-One accumulation assay, FP H81A mutant; conditions: H81 mutated to alanine vs WT FP
# T7 construct: Flag; expressed in transfected cells; host or cells: AD293 cells
# Experimental: as §1
# FP S33A = target: T8, FP S33A (Homo sapiens, UniProt P43088, S33A); test: IP-One accumulation assay, FP S33A mutant
# T8 construct: Flag; expressed in transfected cells; host or cells: AD293 cells
# Experimental: as §1
# FP R291A = target: T9, FP R291A (Homo sapiens, UniProt P43088, R291A); test: IP-One accumulation assay, FP R291A mutant
# T9 construct: Flag; expressed in transfected cells; host or cells: AD293 cells
# Experimental: as §1
# FP R133A = target: T10, FP R133A (Homo sapiens, UniProt P43088, R133A); test: IP-One accumulation assay, FP R133A mutant; conditions: for IP1 accumulation response to PGF2α (dose-response source data): FP R133A, replicate values
# T10 construct: expressed in transfected cells; host or cells: AD293 cells
# Experimental: as §1
# FP W262A = target: T11, FP W262A (Homo sapiens, UniProt P43088, W262A); test: IP-One accumulation assay, FP W262A mutant; conditions: W262 to alanine vs WT FP
# T11 construct: Flag; expressed in transfected cells; host or cells: AD293 cells
# Experimental: as §1
# FP L123A = target: T12, FP L123A (Homo sapiens, UniProt P43088, L123A); test: IP-One accumulation assay, FP L123A mutant; conditions: L123A mutant vs WT FP
# T12 construct: Flag; expressed in transfected cells; host or cells: AD293 cells
# Experimental: as §1
# FP Y92A = target: T13, FP Y92A (Homo sapiens, UniProt P43088, Y92A); test: IP-One accumulation assay, FP Y92A mutant; conditions: Y92 mutant (alanine) vs WT FP
# T13 construct: Flag; expressed in transfected cells; host or cells: AD293 cells
# Experimental: as §1
# FP mutant of C134 = target: T14, FP mutant of C134 (Homo sapiens, UniProt P43088, C134A); test: IP-One accumulation assay, FP C134 mutant; conditions: C134 mutant vs WT FP
# T14 construct: expressed in transfected cells; host or cells: AD293 cells
# Experimental: as §1
# FP L213A = target: T15, FP L213A (Homo sapiens, UniProt P43088, L213A); test: IP-One accumulation assay, FP L213A mutant; conditions: L213A mutant vs WT FP
# T15 construct: Flag; expressed in transfected cells; host or cells: AD293 cells
# Experimental: as §1
# FP T184A = target: T16, FP T184A (Homo sapiens, UniProt P43088, T184A); test: IP-One accumulation assay, FP T184A mutant; conditions: T184 mutant (alanine) vs WT FP
# T16 construct: Flag; expressed in transfected cells; host or cells: AD293 cells
# Experimental: as §1
# FP M115A = target: T17, FP M115A (Homo sapiens, UniProt P43088, M115A); test: IP-One accumulation assay, FP M115A mutant
# T17 construct: Flag; expressed in transfected cells; host or cells: AD293 cells
# Experimental: as §1
# FP S118A = target: T18, FP S118A (Homo sapiens, UniProt P43088, S118A); test: IP-One accumulation assay, FP S118A mutant; conditions: S118A mutant vs WT FP; IP1 accumulation, AD293 cells; single values of n = 3 independent samples
# T18 construct: Flag; expressed in transfected cells; host or cells: AD293 cells
# Experimental: as §1
# human FP (WT) = target: T19, human FP (WT) (Homo sapiens, UniProt P43088); test: IP-One (IP1) accumulation assay, wild-type FP
# T19 construct: Flag; expressed in transfected cells; host or cells: AD293 cells
# Experimental: as §1
# FP mutant of E132 = target: T20, FP mutant of E132 (Homo sapiens, UniProt P43088, E132A); test: IP-One accumulation assay, FP E132 mutant; conditions: E132 mutant vs WT FP
# T20 construct: Flag; expressed in transfected cells; host or cells: AD293 cells
# Experimental: as §1
# FP I290A = target: T21, FP I290A (Homo sapiens, UniProt P43088); test: IP-One accumulation assay, FP I290A mutant; conditions: L290 to alanine vs WT FP
# T21 construct: Flag; expressed in transfected cells; host or cells: AD293 cells
# Experimental: as §1
# T8 sequence (P43088 whole entry S33A): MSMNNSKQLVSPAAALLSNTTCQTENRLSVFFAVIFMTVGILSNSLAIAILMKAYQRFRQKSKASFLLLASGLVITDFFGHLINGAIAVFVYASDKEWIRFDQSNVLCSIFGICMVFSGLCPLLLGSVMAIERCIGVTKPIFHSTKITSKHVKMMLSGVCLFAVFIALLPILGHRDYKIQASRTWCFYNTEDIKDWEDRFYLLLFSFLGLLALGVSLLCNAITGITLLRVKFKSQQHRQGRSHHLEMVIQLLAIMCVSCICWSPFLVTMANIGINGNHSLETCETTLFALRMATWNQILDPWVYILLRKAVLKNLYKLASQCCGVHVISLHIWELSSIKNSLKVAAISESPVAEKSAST
# T9 sequence (P43088 whole entry R291A): as the sequence (P43088 whole entry S33A) above, with A33S, R291A counted along it
# T10 sequence (P43088 whole entry R133A): as the sequence (P43088 whole entry S33A) above, with A33S, R133A counted along it
# T17 sequence (P43088 whole entry M115A): as the sequence (P43088 whole entry S33A) above, with A33S, M115A counted along it
# T5 sequence (P43088 whole entry F265A): as the sequence (P43088 whole entry S33A) above, with A33S, F265A counted along it
# T1 sequence (P43088 whole entry T294A): as the sequence (P43088 whole entry S33A) above, with A33S, T294A counted along it
# T19 sequence (P43088 whole entry): as the sequence (P43088 whole entry S33A) above, with A33S counted along it
# T18 sequence (P43088 whole entry S118A): as the sequence (P43088 whole entry S33A) above, with A33S, S118A counted along it
# T6 sequence (P43088 whole entry Q297A): as the sequence (P43088 whole entry S33A) above, with A33S, Q297A counted along it
# T15 sequence (P43088 whole entry L213A): as the sequence (P43088 whole entry S33A) above, with A33S, L213A counted along it
# T12 sequence (P43088 whole entry L123A): as the sequence (P43088 whole entry S33A) above, with A33S, L123A counted along it
# T20 sequence (P43088 whole entry E132A): as the sequence (P43088 whole entry S33A) above, with A33S, E132A counted along it
# T13 sequence (P43088 whole entry Y92A): as the sequence (P43088 whole entry S33A) above, with A33S, Y92A counted along it
# T2 sequence (P43088 whole entry Q250A): as the sequence (P43088 whole entry S33A) above, with A33S, Q250A counted along it
# T14 sequence (P43088 whole entry C134A): as the sequence (P43088 whole entry S33A) above, with A33S, C134A counted along it
# T7 sequence (P43088 whole entry H81A): as the sequence (P43088 whole entry S33A) above, with A33S, H81A counted along it
# T4 sequence (P43088 whole entry F205A): as the sequence (P43088 whole entry S33A) above, with A33S, F205A counted along it
# T16 sequence (P43088 whole entry T184A): as the sequence (P43088 whole entry S33A) above, with A33S, T184A counted along it
# T21 sequence (P43088 whole entry L290A): as the sequence (P43088 whole entry S33A) above, with A33S, L290A counted along it
# T11 sequence (P43088 whole entry W262A): as the sequence (P43088 whole entry S33A) above, with A33S, W262A counted along it
# T3 sequence (P43088 whole entry R308A): as the sequence (P43088 whole entry S33A) above, with A33S, R308A counted along it
smiles,measurement,setting,value
"CCCCC[C@H](O)/C=C/[C@@H]1[C@@H](C/C=C\CCCC(=O)O)[C@@H](O)C[C@H]1O [PGF2α, Prostaglandin F2α]",∆pEC50 (pEC50 of agonist to mutant minus pEC50 to WT),"FP T294A; T294A mutant vs WT FP, IP1 accumulation, AD293 cells, single values of n = 3 independent samples",-2.2 and -2.3 and -2.0
same,effect of mutation on agonist affinity / potency (in words),FP T294A; T294 to alanine vs WT FP,significantly impaired the affinity
same,effect of mutation on agonist activity (in words),FP Q250A,loss of PGF2α activity
same,effect of mutation on agonist activity (in words),FP R308A,loss of PGF2α activity
same,effect of mutation on agonist affinity (in words),FP F205A,significantly impaired the affinity
same,∆pEC50 (pEC50 of agonist to mutant minus pEC50 to WT),"FP F265A; F265A mutant vs WT FP, IP1 accumulation, AD293 cells, single values of n = 3 independent samples",-2.8 and -2.7
same,effect of mutation on agonist affinity (in words),FP F265A; F265 to alanine vs WT FP,significantly impaired the affinity
same,∆pEC50 (pEC50 of agonist to mutant minus pEC50 to WT),FP Q297A,-1.9 and -1.8
same,reduction of activity to FP by mutation,FP H81A,over 1000 folds
same,∆pEC50 (pEC50 of agonist to mutant minus pEC50 to WT),"FP S33A; S33A mutant vs WT FP, IP1 accumulation, AD293 cells, single values of n = 3 independent samples",-1.0 and -1.1 and -0.8
same,effect of mutation on agonist affinity / potency (in words),FP S33A; S33 to alanine vs WT FP,significantly impaired the affinity
same,∆pEC50 (pEC50 of agonist to mutant minus pEC50 to WT),"FP R291A; R291A mutant vs WT FP, IP1 accumulation, AD293 cells, single values of n = 3 independent samples",-2.6 and -2.4 and -2.5
same,effect of mutation on agonist activity / potency (in words),FP R291A; R291 mutant (alanine) vs WT FP,decreased activity
same,IP1 accumulation response to PGF2α (dose-response source data),FP R133A; log[PGF2α] -5,21.57 and 17.44 and 18.01
same,IP1 accumulation response to PGF2α (dose-response source data),FP R133A; log[PGF2α] -6,20.73 and 14.37 and 13.23
same,IP1 accumulation response to PGF2α (dose-response source data),FP R133A; log[PGF2α] -7,14.89 and 14.23 and 16.03
same,IP1 accumulation response to PGF2α (dose-response source data),FP R133A; log[PGF2α] -8,16.86 and 14.19 and 10.91
same,IP1 accumulation response to PGF2α (dose-response source data),FP R133A; log[PGF2α] -9,17.57 and 19.43 and 13.59
same,IP1 accumulation response to PGF2α (dose-response source data),FP R133A; log[PGF2α] -10,9.93 and 11.01 and 11.54
same,IP1 accumulation response to PGF2α (dose-response source data),FP R133A; log[PGF2α] -11,5.43 and 6.41 and 3.41
same,IP1 accumulation response to PGF2α (dose-response source data),FP R133A; log[PGF2α] -14,0.27 and 6.69 and 6.06
same,effect of mutation on agonist activity (in words),FP R133A; R133 / R133A mutant vs WT FP,decreased PGF2α activity; also recorded: loss of PGF2α activity
same,effect of mutation on agonist affinity / induced activation (in words),FP W262A,significantly impaired the affinity
same,effect of mutation on agonist potency (in words),FP L123A,decreased potency
same,effect of mutation on agonist activity / potency (in words),FP Y92A,decreased activity
same,effect of mutation on agonist activity (in words),FP mutant of C134,decreased PGF2α activity
same,effect of mutation on agonist potency (in words),FP L213A,decreased potency
same,effect of mutation on agonist activity / potency (in words),FP T184A,decreased activity
same,∆pEC50 (pEC50 of agonist to mutant minus pEC50 to WT),"FP M115A; M115A mutant vs WT FP, IP1 accumulation, AD293 cells, single values of n = 3 independent samples",-2.0 and -2.1 and -1.9
same,decrease of affinity by mutation,FP M115A; M115 mutated to alanine vs WT FP,approximately 100 fold
same,∆pEC50 (pEC50 of agonist to mutant minus pEC50 to WT),FP S118A,0.3 and 0.0 and 0.2
same,IP1 accumulation response to PGF2α (dose-response source data),"human FP (WT); log[PGF2α] -5, replicate values",101.79 and 97.30 and 100.89
same,IP1 accumulation response to PGF2α (dose-response source data),"human FP (WT); log[PGF2α] -6, replicate values",98.67 and 93.94 and 92.75
same,IP1 accumulation response to PGF2α (dose-response source data),"human FP (WT); log[PGF2α] -7, replicate values",95.13 and 96.40 and 98.46
same,IP1 accumulation response to PGF2α (dose-response source data),"human FP (WT); log[PGF2α] -8, replicate values",91.30 and 99.44 and 87.48
same,IP1 accumulation response to PGF2α (dose-response source data),"human FP (WT); log[PGF2α] -9, replicate values",86.14 and 76.33 and 80.44
same,IP1 accumulation response to PGF2α (dose-response source data),"human FP (WT); log[PGF2α] -10, replicate values",72.71 and 62.76 and 60.52
same,IP1 accumulation response to PGF2α (dose-response source data),"human FP (WT); log[PGF2α] -11, replicate values",49.52 and 56.92 and 52.06
same,IP1 accumulation response to PGF2α (dose-response source data),"human FP (WT); log[PGF2α] -14, replicate values",42.81 and 48.67 and 43.43
same,effect of mutation on agonist activity (in words),FP mutant of E132,decreased PGF2α activity
same,effect of mutation on agonist affinity (in words),FP I290A,significantly impaired the affinity

# Reference: publication PMC10169810, “Ligand-induced activation and G protein coupling of prostaglandin F2α receptor” (Nature Communications, 2023)
